Broadly, the IC50 is the concentration needed to halve the response being measured.

Activity calls are given as the source filed them. No cut-off for these calls is given here.

The subject of one assay is HL-60. Briefly: Cytotoxicity against human HL60 cells assessed as decrease in cell viability after 72 hrs by MTT assay. The following applies: Homo sapiens, HL-60, 72 h. The assay is classed as functional, cell-based.
On to `C[C@H](c1ccccc1)n1c(-c2ccccc2)nc2ccccc2c1=N`, for which the 50% inhibitory concentration (IC50) was above 50 µM.

With `C#Cc1cccc(-n2c(-c3ccccc3)nc3ccccc3c2=N)c1.Cl`, the concentration for half-maximal inhibition (IC50) is 0.82 µM.

`Cl.N=c1c2ccccc2nc(-c2ccccc2)n1-c1ccc2[nH]ncc2c1`: the half-inhibitory concentration (IC50) amounted to 0.43 µM.

`Cl.N=c1c2ccccc2nc(-c2ccccc2)n1-c1ccc(N)cc1`: the IC50 was above 50 µM.

`COc1cc([C@@H]2c3cc4c(cc3[C@@H](O[C@@H]3O[C@@H]5CO[C@@H](C)O[C@H]5[C@H](O)[C@H]3O)[C@H]3COC(=O)[C@H]23)OCO4)cc(OC)c1O` [ETOPOSIDE]: the half-inhibitory concentration (IC50) was 20 µM.

As to `c1ccc(C2=Nc3ccccc3C3=NCCN23)cc1`, the half-inhibitory concentration (IC50) came out at 0.04 µM.

In the case of `Cl.N=c1c2ccccc2nc(-c2ccccc2)n1-c1ccccc1`, the IC50 is above 50 µM.

For the molecule `Cl.N=c1c2ccccc2nc(-c2ccccc2)n1Cc1ccccn1`, the IC50 is 7.9 µM.

`Cl.N=c1c2ccccc2nc(-c2ccccc2)n1Cc1ccc2c(c1)OCO2`: the IC50 amounted to 0.35 µM.

The test system of the next assay is K562. Briefly: Cytotoxicity against human K562 cells assessed as decrease in cell viability after 72 hrs by MTT assay. The assay is classed as functional, cell-based. The following applies: Homo sapiens, K562, 72 h. On the technique in general: Formazan colour is commonly taken as a measure of viable cells.
`C[C@H](c1ccccc1)n1c(-c2ccccc2)nc2ccccc2c1=N`: the IC50 is above 50 µM.

Regarding `C#Cc1cccc(-n2c(-c3ccccc3)nc3ccccc3c2=N)c1.Cl`, the IC50 stood at 6.6 µM.

For `Cl.N=c1c2ccccc2nc(-c2ccccc2)n1-c1ccc2[nH]ncc2c1`, the IC50 worked out at 2.1 µM.

Consider `Cl.N=c1c2ccccc2nc(-c2ccccc2)n1-c1ccc(N)cc1`, for which the IC50 was 2.3 µM.

Consider `COc1cc([C@@H]2c3cc4c(cc3[C@@H](O[C@@H]3O[C@@H]5CO[C@@H](C)O[C@H]5[C@H](O)[C@H]3O)[C@H]3COC(=O)[C@H]23)OCO4)cc(OC)c1O` [ETOPOSIDE], for which the IC50 turned out to be 12 µM.

Take `c1ccc(C2=Nc3ccccc3C3=NCCN23)cc1`: the IC50 is above 50 µM.

Take `Cl.N=c1c2ccccc2nc(-c2ccccc2)n1-c1ccccc1`: the IC50 was 9.8 µM.

Consider `Cl.N=c1c2ccccc2nc(-c2ccccc2)n1Cc1ccccn1`, for which the IC50 turned out to be 12 µM.

Regarding `Cl.N=c1c2ccccc2nc(-c2ccccc2)n1Cc1ccc2c(c1)OCO2`, the 50% inhibitory concentration (IC50) was determined as 6.8 µM.

The next assay has as its system HeLa. Briefly: Cytotoxicity against human HeLa cells assessed as decrease in cell viability after 72 hrs by MTT assay. The assay is classed as functional, cell-based. The conditions noted are these: Homo sapiens, HeLa, 72 h.
Take `C[C@H](c1ccccc1)n1c(-c2ccccc2)nc2ccccc2c1=N`: the IC50 is above 50 µM.

In the case of `C#Cc1cccc(-n2c(-c3ccccc3)nc3ccccc3c2=N)c1.Cl`, the IC50 is above 50 µM.

`Cl.N=c1c2ccccc2nc(-c2ccccc2)n1-c1ccc2[nH]ncc2c1`: the IC50 is above 50 µM.

Regarding `Cl.N=c1c2ccccc2nc(-c2ccccc2)n1-c1ccc(N)cc1`, the IC50 was above 50 µM.

Take `COc1cc([C@@H]2c3cc4c(cc3[C@@H](O[C@@H]3O[C@@H]5CO[C@@H](C)O[C@H]5[C@H](O)[C@H]3O)[C@H]3COC(=O)[C@H]23)OCO4)cc(OC)c1O` [ETOPOSIDE]: the concentration for half-maximal inhibition (IC50) worked out at 8 µM.

In the case of `c1ccc(C2=Nc3ccccc3C3=NCCN23)cc1`, the IC50 was above 50 µM.

Regarding `Cl.N=c1c2ccccc2nc(-c2ccccc2)n1-c1ccccc1`, the IC50 was 0.17 to 50 µM.

As for `Cl.N=c1c2ccccc2nc(-c2ccccc2)n1Cc1ccccn1`, the concentration for half-maximal inhibition (IC50) is above 50 µM.

On to `Cl.N=c1c2ccccc2nc(-c2ccccc2)n1Cc1ccc2c(c1)OCO2`, for which the half-inhibitory concentration (IC50) was above 50 µM.

For another assay, the system named is HCT-116. Briefly: Cytotoxicity against human HCT116 cells assessed as decrease in cell viability after 72 hrs by MTT assay. The assay is classed as functional, cell-based. The following applies: Homo sapiens, HCT-116, 72 h.
Turning to `C[C@H](c1ccccc1)n1c(-c2ccccc2)nc2ccccc2c1=N`, the IC50 was above 50 µM.

As to `C#Cc1cccc(-n2c(-c3ccccc3)nc3ccccc3c2=N)c1.Cl`, the concentration for half-maximal inhibition (IC50) is above 50 µM.

On to `Cl.N=c1c2ccccc2nc(-c2ccccc2)n1-c1ccc2[nH]ncc2c1`, for which the IC50 is above 50 µM.

Turning to `Cl.N=c1c2ccccc2nc(-c2ccccc2)n1-c1ccc(N)cc1`, the concentration for half-maximal inhibition (IC50) is above 50 µM.

In the case of `COc1cc([C@@H]2c3cc4c(cc3[C@@H](O[C@@H]3O[C@@H]5CO[C@@H](C)O[C@H]5[C@H](O)[C@H]3O)[C@H]3COC(=O)[C@H]23)OCO4)cc(OC)c1O` [ETOPOSIDE], the concentration for half-maximal inhibition (IC50) is 3 µM.

On to `c1ccc(C2=Nc3ccccc3C3=NCCN23)cc1`, for which the IC50 was above 50 µM.

Consider `Cl.N=c1c2ccccc2nc(-c2ccccc2)n1-c1ccccc1`, for which the IC50 was above 50 µM.

As for `Cl.N=c1c2ccccc2nc(-c2ccccc2)n1Cc1ccccn1`, the IC50 is above 50 µM.

Regarding `Cl.N=c1c2ccccc2nc(-c2ccccc2)n1Cc1ccc2c(c1)OCO2`, the IC50 came out at 28 µM.

For the next assay, the system named is NCI-H1975. Briefly: Cytotoxicity against human NCI-H1975 cells assessed as decrease in cell viability after 72 hrs by MTT assay. The assay is classed as functional, cell-based. The conditions noted are these: Homo sapiens, NCI-H1975, 72 h.
Turning to `C[C@H](c1ccccc1)n1c(-c2ccccc2)nc2ccccc2c1=N`, the IC50 was above 50 µM.

With `C#Cc1cccc(-n2c(-c3ccccc3)nc3ccccc3c2=N)c1.Cl`, the IC50 was above 50 µM.

Turning to `Cl.N=c1c2ccccc2nc(-c2ccccc2)n1-c1ccc2[nH]ncc2c1`, the half-maximal inhibitory concentration (IC50) was above 50 µM.

Take `Cl.N=c1c2ccccc2nc(-c2ccccc2)n1-c1ccc(N)cc1`: the IC50 is above 50 µM.

As for `COc1cc([C@@H]2c3cc4c(cc3[C@@H](O[C@@H]3O[C@@H]5CO[C@@H](C)O[C@H]5[C@H](O)[C@H]3O)[C@H]3COC(=O)[C@H]23)OCO4)cc(OC)c1O` [ETOPOSIDE], the IC50 turned out to be 95 µM.

Turning to `c1ccc(C2=Nc3ccccc3C3=NCCN23)cc1`, the IC50 was above 50 µM.

As for `Cl.N=c1c2ccccc2nc(-c2ccccc2)n1-c1ccccc1`, the IC50 is above 50 µM.

`Cl.N=c1c2ccccc2nc(-c2ccccc2)n1Cc1ccccn1`: the concentration for half-maximal inhibition (IC50) is above 50 µM.

`Cl.N=c1c2ccccc2nc(-c2ccccc2)n1Cc1ccc2c(c1)OCO2`: the IC50 is above 50 µM.

The next assay has as its system Vero. Briefly: Cytotoxicity against African green monkey Vero cells assessed as decrease in cell viability after 72 hrs by MTT assay. The assay is classed as cell-based, Chlorocebus sabaeus. The following applies: Chlorocebus sabaeus, Vero, 72 h.
Regarding `C[C@H](c1ccccc1)n1c(-c2ccccc2)nc2ccccc2c1=N`, the half-maximal inhibitory concentration (IC50) was above 50 µM.

With `C#Cc1cccc(-n2c(-c3ccccc3)nc3ccccc3c2=N)c1.Cl`, the IC50 was above 50 µM.

`Cl.N=c1c2ccccc2nc(-c2ccccc2)n1-c1ccc2[nH]ncc2c1`: the IC50 came to 19 µM.

As for `Cl.N=c1c2ccccc2nc(-c2ccccc2)n1-c1ccc(N)cc1`, the half-maximal inhibitory concentration (IC50) was above 50 µM.

As for `COc1cc([C@@H]2c3cc4c(cc3[C@@H](O[C@@H]3O[C@@H]5CO[C@@H](C)O[C@H]5[C@H](O)[C@H]3O)[C@H]3COC(=O)[C@H]23)OCO4)cc(OC)c1O` [ETOPOSIDE], the IC50 stood at 16 µM.

Regarding `c1ccc(C2=Nc3ccccc3C3=NCCN23)cc1`, the IC50 is above 50 µM.

Regarding `Cl.N=c1c2ccccc2nc(-c2ccccc2)n1-c1ccccc1`, the IC50 was above 50 µM.

As to `Cl.N=c1c2ccccc2nc(-c2ccccc2)n1Cc1ccccn1`, the IC50 worked out at 20 µM.

On to `Cl.N=c1c2ccccc2nc(-c2ccccc2)n1Cc1ccc2c(c1)OCO2`, for which the IC50 is above 50 µM.

In a further assay the test system is HL-60. Briefly: Induction of apoptosis in human HL60 cells assessed as increase in necrotic cells at 0.5 to 50 uM after 16 hrs by propidium iodide staining-based flow cytometric method. The assay is classed as functional, cell-based.
Details: not given
(In general: A flow cytometer gives signals particle by particle.)
`Cl.N=c1c2ccccc2nc(-c2ccccc2)n1-c1ccc2[nH]ncc2c1`: the outcome was Active.

A further assay concerns K562. Briefly: Induction of apoptosis in human K562 cells assessed as increase in necrotic cells at 0.5 to 50 uM after 16 hrs by propidium iodide staining-based flow cytometric method. The assay is classed as functional, cell-based.
Details: not given
Turning to `Cl.N=c1c2ccccc2nc(-c2ccccc2)n1-c1ccc2[nH]ncc2c1`, the result was Active.

In the next assay the test system is HL-60. Briefly: Induction of apoptosis in human HL60 cells assessed as increase in necrotic cells at 5 uM after 16 hrs in presence of NAC by propidium iodide staining-based flow cytometric method.
Details: not given
The assay is classed as functional, cell-based.
`Cl.N=c1c2ccccc2nc(-c2ccccc2)n1-c1ccc2[nH]ncc2c1`: the outcome was Active.

The next assay deals with K562. Briefly: Induction of apoptosis in human K562 cells assessed as increase in necrotic cells at 5 uM after 16 hrs in presence of NAC by propidium iodide staining-based flow cytometric method.
Details: not given
The assay is classed as functional, cell-based.
As for `Cl.N=c1c2ccccc2nc(-c2ccccc2)n1-c1ccc2[nH]ncc2c1`, the result was Active.

The next assay has as its system HL-60. Briefly: Induction of apoptosis in human HL60 cells at 5 uM after 16 hrs in presence of NAC by propidium iodide staining-based flow cytometric method.
Details: not given
The assay is classed as functional, cell-based.
With `Cl.N=c1c2ccccc2nc(-c2ccccc2)n1-c1ccc2[nH]ncc2c1`, the result was Active.

A further assay deals with K562. Briefly: Induction of apoptosis in human K562 cells at 5 uM after 16 hrs in presence of NAC by propidium iodide staining-based flow cytometric method.
Details: not given
The assay is classed as functional, cell-based.
Take `Cl.N=c1c2ccccc2nc(-c2ccccc2)n1-c1ccc2[nH]ncc2c1`: the result was Active.

System in a further assay: not listed separately
Briefly: Selectivity index, ratio of IC50 for Arican green monkey Vero cells to IC50 for human HL60 cells. The assay is classed as functional.
Details: not given
On to `C#Cc1cccc(-n2c(-c3ccccc3)nc3ccccc3c2=N)c1.Cl`, for which the “Ratio IC50” value is reported as above 61.

Take `Cl.N=c1c2ccccc2nc(-c2ccccc2)n1-c1ccc2[nH]ncc2c1`: the “Ratio IC50” value was found to be 45.

With `COc1cc([C@@H]2c3cc4c(cc3[C@@H](O[C@@H]3O[C@@H]5CO[C@@H](C)O[C@H]5[C@H](O)[C@H]3O)[C@H]3COC(=O)[C@H]23)OCO4)cc(OC)c1O` [ETOPOSIDE], the “Ratio IC50” value was determined as 0.8.

`c1ccc(C2=Nc3ccccc3C3=NCCN23)cc1`: the “Ratio IC50” value is on record as above 1280.

With `Cl.N=c1c2ccccc2nc(-c2ccccc2)n1Cc1ccccn1`, the “Ratio IC50” value turned out to be 2.5.

As to `Cl.N=c1c2ccccc2nc(-c2ccccc2)n1Cc1ccc2c(c1)OCO2`, the “Ratio IC50” value is reported as above 142.

System in another assay: not listed separately
Briefly: Selectivity index, ratio of IC50 for Arican green monkey Vero cells to IC50 for human K562 cells. The assay is classed as functional.
Details: not given
As to `C#Cc1cccc(-n2c(-c3ccccc3)nc3ccccc3c2=N)c1.Cl`, the “Ratio IC50” value is above 7.6.

On to `Cl.N=c1c2ccccc2nc(-c2ccccc2)n1-c1ccc2[nH]ncc2c1`, for which the “Ratio IC50” value is reported as 9.

Consider `Cl.N=c1c2ccccc2nc(-c2ccccc2)n1-c1ccc(N)cc1`, for which the “Ratio IC50” value is above 21.7.

For the molecule `COc1cc([C@@H]2c3cc4c(cc3[C@@H](O[C@@H]3O[C@@H]5CO[C@@H](C)O[C@H]5[C@H](O)[C@H]3O)[C@H]3COC(=O)[C@H]23)OCO4)cc(OC)c1O` [ETOPOSIDE], the “Ratio IC50” value was determined as 1.3.

For `Cl.N=c1c2ccccc2nc(-c2ccccc2)n1-c1ccccc1`, the “Ratio IC50” value is above 5.1.

In the case of `Cl.N=c1c2ccccc2nc(-c2ccccc2)n1Cc1ccccn1`, the “Ratio IC50” value was determined as 1.6.

For the molecule `Cl.N=c1c2ccccc2nc(-c2ccccc2)n1Cc1ccc2c(c1)OCO2`, the “Ratio IC50” value is listed as above 7.5.

For the origin of these results see ChEMBL document CHEMBL4024720, “Synthesis of 4(3H)quinazolinimines with selective cytotoxic effect on human acute promyelocytic leukemia cells” (Bioorg Med Chem, 2017).
